From ChEMBL document CHEMBL3774336, “Identification of spirooxindole and dibenzoxazepine motifs as potent mineralocorticoid receptor antagonists” (Bioorg Med Chem, 2016)

Experiments:
[1] = target: T1, Mineralocorticoid receptor (Homo sapiens, UniProt P08235, C808S)
[2] = target: T1, Mineralocorticoid receptor; remark: listed apart in the source
[3] = Half life of compound in rat liver microsomes; type: ADME
Cytochrome P450 2C9 = Cytochrome P450 2C9 (Homo sapiens, UniProt P11712); assay: Inhibition of CYP2C9 (unknown origin); type: ADME
hERG (KCNH2) = hERG (KCNH2) (Homo sapiens, UniProt Q12809); assay: Inhibition of human ERG (unknown origin) at 10 uM
[4] = target: 5-hydroxytryptamine receptor 2B (Homo sapiens) (UniProt P41595); assay: Inhibition of serotonin 5H2B receptor (unknown origin) at 10 uM
Cytochrome P450 2D6 = Cytochrome P450 2D6 (Homo sapiens, UniProt P10635); assay: Inhibition of CYP2D6 (unknown origin); type: ADME
Cytochrome P450 3A4 = Cytochrome P450 3A4 (Homo sapiens, UniProt P08684)
Description: Inhibition of CYP3A4 (unknown origin)

Progesterone receptor = target: T2, Progesterone receptor (Homo sapiens, UniProt P06401); assay: Inhibition of GST-tagged human progesterone receptor LBD domain expressed in insect cells by Gal4-based fluorescence polarization assay
T2 sequence (P06401 whole entry): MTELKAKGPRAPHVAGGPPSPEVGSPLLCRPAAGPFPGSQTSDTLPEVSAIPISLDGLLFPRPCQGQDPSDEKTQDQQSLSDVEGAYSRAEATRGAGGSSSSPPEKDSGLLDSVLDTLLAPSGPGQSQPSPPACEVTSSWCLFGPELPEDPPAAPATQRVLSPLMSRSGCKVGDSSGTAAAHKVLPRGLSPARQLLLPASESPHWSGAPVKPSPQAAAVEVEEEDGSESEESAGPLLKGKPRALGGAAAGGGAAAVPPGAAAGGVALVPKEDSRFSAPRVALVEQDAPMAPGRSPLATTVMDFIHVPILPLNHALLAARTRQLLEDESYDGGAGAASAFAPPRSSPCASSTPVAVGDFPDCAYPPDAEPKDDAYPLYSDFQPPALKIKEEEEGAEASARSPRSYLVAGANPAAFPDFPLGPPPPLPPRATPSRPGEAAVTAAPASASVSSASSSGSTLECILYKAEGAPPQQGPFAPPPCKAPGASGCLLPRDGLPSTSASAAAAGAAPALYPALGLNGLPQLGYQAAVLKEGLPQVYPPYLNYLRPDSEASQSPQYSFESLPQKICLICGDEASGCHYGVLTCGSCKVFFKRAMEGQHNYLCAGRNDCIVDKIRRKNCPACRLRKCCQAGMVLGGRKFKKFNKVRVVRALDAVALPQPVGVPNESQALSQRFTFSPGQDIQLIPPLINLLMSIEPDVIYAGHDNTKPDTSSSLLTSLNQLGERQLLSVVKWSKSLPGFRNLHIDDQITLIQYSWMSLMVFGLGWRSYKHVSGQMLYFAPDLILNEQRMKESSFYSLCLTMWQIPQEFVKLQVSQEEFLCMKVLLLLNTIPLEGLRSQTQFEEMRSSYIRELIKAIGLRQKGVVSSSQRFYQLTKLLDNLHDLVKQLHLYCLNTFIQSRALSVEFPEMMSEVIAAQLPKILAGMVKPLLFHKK

[5] = target: T3, Alpha-2A adrenergic receptor (Homo sapiens) (UniProt P08913); assay: Inhibition of adrenergic alpha2A receptor (unknown origin) at 10 uM
T3 sequence (whole entry): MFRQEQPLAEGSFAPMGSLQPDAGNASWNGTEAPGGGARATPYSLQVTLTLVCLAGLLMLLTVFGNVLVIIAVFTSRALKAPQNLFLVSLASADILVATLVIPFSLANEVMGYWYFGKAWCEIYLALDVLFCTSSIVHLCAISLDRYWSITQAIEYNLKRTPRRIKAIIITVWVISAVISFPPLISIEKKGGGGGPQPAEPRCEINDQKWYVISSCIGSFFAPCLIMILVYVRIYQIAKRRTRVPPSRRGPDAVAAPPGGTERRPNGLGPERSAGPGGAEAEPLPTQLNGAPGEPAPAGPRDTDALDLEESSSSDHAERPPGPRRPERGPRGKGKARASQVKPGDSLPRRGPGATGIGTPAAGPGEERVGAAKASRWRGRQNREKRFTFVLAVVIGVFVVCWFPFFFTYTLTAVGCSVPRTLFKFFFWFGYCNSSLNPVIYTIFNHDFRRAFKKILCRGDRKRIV

[6] = target: Histamine H1 receptor (Homo sapiens) (UniProt P35367); assay: Inhibition of histamine H1 receptor (unknown origin) at 10 uM
Estrogen receptor = target: T4, Estrogen receptor (Homo sapiens, UniProt P03372); assay: Inhibition of estrogen receptor (unknown origin) by Gal4-based luciferase assay
T4 sequence (P03372 whole entry): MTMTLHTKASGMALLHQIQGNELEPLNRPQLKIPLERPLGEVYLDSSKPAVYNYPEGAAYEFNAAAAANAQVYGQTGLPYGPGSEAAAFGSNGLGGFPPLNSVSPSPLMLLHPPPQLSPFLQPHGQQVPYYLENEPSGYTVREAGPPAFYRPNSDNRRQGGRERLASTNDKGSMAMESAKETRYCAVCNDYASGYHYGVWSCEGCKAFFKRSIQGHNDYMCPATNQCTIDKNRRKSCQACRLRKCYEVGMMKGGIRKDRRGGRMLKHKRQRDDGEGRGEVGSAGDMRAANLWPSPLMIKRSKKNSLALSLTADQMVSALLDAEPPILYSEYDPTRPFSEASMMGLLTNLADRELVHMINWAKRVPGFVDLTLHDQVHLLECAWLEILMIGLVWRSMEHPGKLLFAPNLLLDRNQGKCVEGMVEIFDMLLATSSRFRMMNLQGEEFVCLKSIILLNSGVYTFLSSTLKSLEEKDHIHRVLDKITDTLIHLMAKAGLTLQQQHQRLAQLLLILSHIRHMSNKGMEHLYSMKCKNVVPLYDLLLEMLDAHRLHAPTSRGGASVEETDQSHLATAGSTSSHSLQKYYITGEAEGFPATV

Glucocorticoid receptor = target: T5, Glucocorticoid receptor (Homo sapiens, UniProt P04150); assay: Inhibition of GST-tagged human glucocorticoid receptor LBD domain expressed in insect cells at by Gal4-based fluorescence polarization assay
T5 sequence (P04150 whole entry): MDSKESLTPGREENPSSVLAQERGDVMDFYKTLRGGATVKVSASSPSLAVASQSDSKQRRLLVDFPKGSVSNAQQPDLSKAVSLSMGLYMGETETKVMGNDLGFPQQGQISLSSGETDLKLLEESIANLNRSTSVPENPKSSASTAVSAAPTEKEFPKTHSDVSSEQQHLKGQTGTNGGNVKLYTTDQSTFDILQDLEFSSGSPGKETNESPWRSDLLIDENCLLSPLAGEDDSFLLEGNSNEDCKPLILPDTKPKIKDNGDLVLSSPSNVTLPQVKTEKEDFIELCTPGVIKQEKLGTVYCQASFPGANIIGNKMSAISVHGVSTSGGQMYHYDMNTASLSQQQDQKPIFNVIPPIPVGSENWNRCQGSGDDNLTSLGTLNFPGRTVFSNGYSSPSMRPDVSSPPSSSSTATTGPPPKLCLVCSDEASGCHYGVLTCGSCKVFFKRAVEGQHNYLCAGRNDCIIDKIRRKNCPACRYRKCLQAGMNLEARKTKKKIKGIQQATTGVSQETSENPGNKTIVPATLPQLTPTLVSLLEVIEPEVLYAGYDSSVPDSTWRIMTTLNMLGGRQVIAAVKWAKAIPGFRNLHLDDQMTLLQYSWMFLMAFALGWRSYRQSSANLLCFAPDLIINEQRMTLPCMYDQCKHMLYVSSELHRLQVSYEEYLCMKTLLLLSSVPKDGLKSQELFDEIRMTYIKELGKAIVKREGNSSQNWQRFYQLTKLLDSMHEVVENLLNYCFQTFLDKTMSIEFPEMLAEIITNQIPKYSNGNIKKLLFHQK

Chain of Cytochrome P450 2D6 (P10635 whole entry): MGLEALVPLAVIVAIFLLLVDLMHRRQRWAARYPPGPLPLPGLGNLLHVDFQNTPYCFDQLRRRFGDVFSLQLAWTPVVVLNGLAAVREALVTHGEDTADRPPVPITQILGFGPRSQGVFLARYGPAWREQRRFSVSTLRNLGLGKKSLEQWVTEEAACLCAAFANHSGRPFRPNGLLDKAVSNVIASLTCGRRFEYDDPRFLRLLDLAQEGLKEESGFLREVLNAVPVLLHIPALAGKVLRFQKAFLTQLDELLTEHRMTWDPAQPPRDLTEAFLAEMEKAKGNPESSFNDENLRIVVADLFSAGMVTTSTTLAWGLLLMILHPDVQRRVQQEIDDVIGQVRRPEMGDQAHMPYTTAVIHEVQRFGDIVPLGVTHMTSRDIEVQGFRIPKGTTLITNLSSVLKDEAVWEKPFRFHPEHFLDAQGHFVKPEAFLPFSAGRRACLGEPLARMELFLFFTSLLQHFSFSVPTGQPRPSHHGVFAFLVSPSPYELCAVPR
Chain of Cytochrome P450 2C9 (P11712 whole entry): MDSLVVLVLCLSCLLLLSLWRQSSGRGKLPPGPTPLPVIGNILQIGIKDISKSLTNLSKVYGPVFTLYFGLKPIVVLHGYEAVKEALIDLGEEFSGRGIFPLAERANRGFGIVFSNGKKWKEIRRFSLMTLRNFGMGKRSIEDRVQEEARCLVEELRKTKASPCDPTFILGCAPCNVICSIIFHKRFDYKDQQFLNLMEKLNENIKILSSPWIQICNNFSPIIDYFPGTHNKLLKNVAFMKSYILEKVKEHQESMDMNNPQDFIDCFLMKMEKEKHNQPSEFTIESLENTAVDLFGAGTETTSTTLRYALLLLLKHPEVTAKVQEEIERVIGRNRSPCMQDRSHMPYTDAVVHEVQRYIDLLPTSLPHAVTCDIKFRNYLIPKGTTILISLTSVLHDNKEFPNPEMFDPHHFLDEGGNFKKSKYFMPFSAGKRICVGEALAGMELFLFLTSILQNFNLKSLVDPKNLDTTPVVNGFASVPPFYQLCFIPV
Chain of Histamine H1 receptor (Homo sapiens) (P35367 whole entry, the tested form may be a part): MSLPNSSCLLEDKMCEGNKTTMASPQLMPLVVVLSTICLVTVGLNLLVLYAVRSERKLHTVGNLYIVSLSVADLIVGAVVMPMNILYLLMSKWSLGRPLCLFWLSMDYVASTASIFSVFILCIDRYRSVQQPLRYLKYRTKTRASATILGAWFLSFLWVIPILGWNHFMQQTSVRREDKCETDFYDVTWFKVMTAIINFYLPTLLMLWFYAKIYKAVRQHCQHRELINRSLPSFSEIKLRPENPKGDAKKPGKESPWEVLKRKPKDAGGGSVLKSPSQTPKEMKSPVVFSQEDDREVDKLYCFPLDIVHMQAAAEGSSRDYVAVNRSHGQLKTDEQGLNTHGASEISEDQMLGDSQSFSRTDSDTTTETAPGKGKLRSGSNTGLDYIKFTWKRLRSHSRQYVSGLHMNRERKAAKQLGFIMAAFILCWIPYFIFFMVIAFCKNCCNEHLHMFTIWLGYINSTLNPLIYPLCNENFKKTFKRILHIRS
T1 sequence (P08235 whole entry C808S): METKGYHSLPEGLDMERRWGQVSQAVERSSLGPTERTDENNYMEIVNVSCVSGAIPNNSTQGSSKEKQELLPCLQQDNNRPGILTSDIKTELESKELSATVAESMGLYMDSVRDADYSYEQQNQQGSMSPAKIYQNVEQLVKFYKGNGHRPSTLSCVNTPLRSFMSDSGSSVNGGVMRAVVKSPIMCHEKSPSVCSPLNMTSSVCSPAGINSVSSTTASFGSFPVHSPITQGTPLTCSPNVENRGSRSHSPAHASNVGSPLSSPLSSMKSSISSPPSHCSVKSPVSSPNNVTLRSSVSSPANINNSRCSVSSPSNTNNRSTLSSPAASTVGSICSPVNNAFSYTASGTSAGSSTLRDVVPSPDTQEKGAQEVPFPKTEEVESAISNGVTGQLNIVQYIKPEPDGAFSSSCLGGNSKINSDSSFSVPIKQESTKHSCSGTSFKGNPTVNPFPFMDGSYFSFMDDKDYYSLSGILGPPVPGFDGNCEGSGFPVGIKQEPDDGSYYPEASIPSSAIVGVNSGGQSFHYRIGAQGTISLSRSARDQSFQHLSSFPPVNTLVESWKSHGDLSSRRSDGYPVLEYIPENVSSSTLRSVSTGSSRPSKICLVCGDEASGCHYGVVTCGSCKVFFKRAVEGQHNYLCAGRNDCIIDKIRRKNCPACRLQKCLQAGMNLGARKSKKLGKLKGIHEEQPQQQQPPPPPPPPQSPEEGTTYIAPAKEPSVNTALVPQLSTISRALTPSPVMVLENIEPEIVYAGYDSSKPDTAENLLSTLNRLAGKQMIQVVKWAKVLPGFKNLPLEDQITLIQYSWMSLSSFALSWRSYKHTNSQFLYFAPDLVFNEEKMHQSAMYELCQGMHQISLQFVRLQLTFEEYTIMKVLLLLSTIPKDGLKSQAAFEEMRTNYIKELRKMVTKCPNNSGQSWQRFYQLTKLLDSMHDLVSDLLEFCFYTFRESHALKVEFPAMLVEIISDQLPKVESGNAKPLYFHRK
Chain of 5-hydroxytryptamine receptor 2B (Homo sapiens) (P41595 whole entry): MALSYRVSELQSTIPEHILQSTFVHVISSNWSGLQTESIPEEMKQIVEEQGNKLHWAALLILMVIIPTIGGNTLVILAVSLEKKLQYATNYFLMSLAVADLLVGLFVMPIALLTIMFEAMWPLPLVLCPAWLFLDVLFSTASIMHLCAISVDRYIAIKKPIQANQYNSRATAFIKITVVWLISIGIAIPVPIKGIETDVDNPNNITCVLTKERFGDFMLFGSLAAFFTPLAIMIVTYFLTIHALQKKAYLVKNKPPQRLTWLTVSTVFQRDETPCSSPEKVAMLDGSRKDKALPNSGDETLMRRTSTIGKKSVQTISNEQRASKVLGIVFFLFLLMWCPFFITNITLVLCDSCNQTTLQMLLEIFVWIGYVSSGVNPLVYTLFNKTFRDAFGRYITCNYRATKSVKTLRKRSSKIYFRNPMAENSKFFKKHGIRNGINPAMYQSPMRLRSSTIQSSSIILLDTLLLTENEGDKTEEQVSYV
Chain of Cytochrome P450 3A4 (P08684 whole entry, the tested form may be a part): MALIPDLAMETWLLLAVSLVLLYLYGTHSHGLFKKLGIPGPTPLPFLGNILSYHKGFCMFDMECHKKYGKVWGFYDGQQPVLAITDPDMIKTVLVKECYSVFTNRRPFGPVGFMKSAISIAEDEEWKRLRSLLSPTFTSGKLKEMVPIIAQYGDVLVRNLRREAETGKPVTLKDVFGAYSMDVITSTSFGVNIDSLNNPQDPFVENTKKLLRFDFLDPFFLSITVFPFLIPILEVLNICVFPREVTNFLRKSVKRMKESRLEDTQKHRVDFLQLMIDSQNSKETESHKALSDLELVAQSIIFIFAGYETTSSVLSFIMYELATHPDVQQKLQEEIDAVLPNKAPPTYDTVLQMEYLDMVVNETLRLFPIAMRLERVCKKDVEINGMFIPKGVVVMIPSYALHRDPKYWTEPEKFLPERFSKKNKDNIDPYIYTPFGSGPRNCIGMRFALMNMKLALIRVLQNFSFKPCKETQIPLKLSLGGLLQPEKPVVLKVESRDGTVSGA
Chain of hERG (KCNH2) (Q12809 whole entry): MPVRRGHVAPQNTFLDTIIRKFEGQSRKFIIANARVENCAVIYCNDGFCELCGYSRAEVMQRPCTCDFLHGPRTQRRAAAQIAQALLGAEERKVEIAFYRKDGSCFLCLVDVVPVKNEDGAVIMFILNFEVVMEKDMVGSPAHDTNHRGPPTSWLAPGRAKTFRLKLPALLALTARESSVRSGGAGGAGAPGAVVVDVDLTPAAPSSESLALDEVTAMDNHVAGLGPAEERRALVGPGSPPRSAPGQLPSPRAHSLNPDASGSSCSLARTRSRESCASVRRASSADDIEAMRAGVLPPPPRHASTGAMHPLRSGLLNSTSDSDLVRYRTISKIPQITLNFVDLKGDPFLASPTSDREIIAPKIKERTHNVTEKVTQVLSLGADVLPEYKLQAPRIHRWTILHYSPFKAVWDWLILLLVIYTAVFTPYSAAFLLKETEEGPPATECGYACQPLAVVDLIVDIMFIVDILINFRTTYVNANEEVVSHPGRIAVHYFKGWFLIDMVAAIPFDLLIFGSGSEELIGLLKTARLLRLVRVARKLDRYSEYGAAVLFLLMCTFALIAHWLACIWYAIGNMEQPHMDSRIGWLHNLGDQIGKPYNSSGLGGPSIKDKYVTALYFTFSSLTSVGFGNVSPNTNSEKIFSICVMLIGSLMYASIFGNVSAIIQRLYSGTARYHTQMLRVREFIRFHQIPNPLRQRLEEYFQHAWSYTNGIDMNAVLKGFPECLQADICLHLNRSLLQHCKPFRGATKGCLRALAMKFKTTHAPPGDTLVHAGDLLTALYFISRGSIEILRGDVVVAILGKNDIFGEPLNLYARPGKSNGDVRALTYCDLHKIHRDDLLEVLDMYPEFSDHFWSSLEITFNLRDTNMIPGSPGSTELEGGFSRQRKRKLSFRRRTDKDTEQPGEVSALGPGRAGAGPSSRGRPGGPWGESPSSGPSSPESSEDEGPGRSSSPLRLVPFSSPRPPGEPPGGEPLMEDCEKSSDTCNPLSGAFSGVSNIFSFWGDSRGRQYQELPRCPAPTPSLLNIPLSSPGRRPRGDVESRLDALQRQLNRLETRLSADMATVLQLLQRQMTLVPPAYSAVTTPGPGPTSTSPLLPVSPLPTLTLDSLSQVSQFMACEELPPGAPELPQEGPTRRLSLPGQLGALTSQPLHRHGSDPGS

SMILES: O=C1COc2ccc(/C=C\c3ccc(F)cc3F)cc2N1
- IC50 [1]: 1510 nM
- Ki [2]: 258 nM

SMILES: O=C(c1ccc2c(c1)NC(=O)C21CCNCC1)N1c2ccccc2COc2cc(F)ccc21
- IC50 [1]: 4930 nM
- Ki [2]: 1090 nM

SMILES: O=C1COc2ccc(CCc3ccc(F)cc3F)cc2N1
- IC50 [1]: 103 nM
- Ki [2]: 20 nM

SMILES: O=C1COc2ccc(C#Cc3ccc(F)cc3F)cc2N1
- IC50 [1]: 772 nM
- Ki [2]: 144 nM

SMILES: OC1CCc2c(/C=C3\c4ccccc4COc4cc(F)ccc43)cccc21 (configuration not stated)
- IC50 [1]: 318 nM
- Ki [2]: 14 nM

SMILES: O=C1Nc2cc(S(=O)(=O)N3c4ccccc4COc4cc(F)ccc43)ccc2C12CCNCC2
- IC50 [1]: 5220 nM
- Ki [2]: 5490 nM

SMILES: CN(Cc1ccc2c(c1)NC(=O)CO2)c1ccc(F)cc1F
- IC50 [1]: 306 nM
- Ki [2]: 230 nM

SMILES: CN(C)CC(=O)N1CCC2(CC1)C(=O)Nc1cc(/C=C3\c4ccccc4COc4cc(F)ccc43)ccc12
- half-life [3]: 53 min
- IC50 (Cytochrome P450 2C9): 3260 nM
- inhibition at 10 µM (hERG (KCNH2)): 98%
- inhibition [4]: 79%
- IC50 [1]: 6 nM
- Ki [2]: 6 nM
- IC50 (Cytochrome P450 2D6): 7750 nM
- IC50 (Cytochrome P450 3A4): 4780 nM
- IC50 (Progesterone receptor): > 5000 nM
- inhibition [5]: 88%
- inhibition [6]: 77%
- IC50 (Estrogen receptor): > 40000 nM
- IC50 (Glucocorticoid receptor): > 5000 nM

SMILES: O=c1[nH]c2cc(/C=C3\c4ccccc4COc4cc(F)ccc43)ccc2n1[C@@H]1C[C@@H]2COCCN2C1
- half-life [3]: 34 min
- IC50 (Cytochrome P450 2C9): 1600 nM
- inhibition at 10 µM (hERG (KCNH2)): 62%
- inhibition [4]: 62%
- IC50 [1]: 23 nM
- Ki [2]: 9 nM
- IC50 (Cytochrome P450 2D6): > 30000 nM
- IC50 (Cytochrome P450 3A4): 5810 nM
- IC50 (Progesterone receptor): > 25000 nM
- inhibition [5]: 76%
- inhibition [6]: 49%
- IC50 (Estrogen receptor): > 25000 nM
- IC50 (Glucocorticoid receptor): > 25000 nM

SMILES: O=C1COc2ccc(S(=O)(=O)N3c4ccccc4COc4cc(F)ccc43)cc2N1
- IC50 (Cytochrome P450 2C9): 1560 nM
- inhibition at 10 µM (hERG (KCNH2)): 28%
- inhibition [4]: 34%
- IC50 [1]: 56 nM
- Ki [2]: 129 nM
- IC50 (Cytochrome P450 2D6): 21300 nM
- inhibition [5]: 24%
- inhibition [6]: 1%

SMILES: O=C1Nc2cc(CN3c4ccccc4COc4cc(F)ccc43)ccc2C12CCNCC2
- IC50 [1]: 2990 nM
- Ki [2]: 1080 nM

SMILES: C[N+]1([O-])CCC2(CC1)C(=O)Nc1cc(/C=C3\c4ccccc4COc4cc(F)ccc43)ccc12 (configuration not stated)
- half-life [3]: > 60 min
- IC50 (Cytochrome P450 2C9): 17000 nM
- inhibition at 10 µM (hERG (KCNH2)): 55%
- inhibition [4]: 66%
- IC50 [1]: 44 nM
- Ki [2]: 19 nM
- IC50 (Cytochrome P450 2D6): > 30000 nM
- IC50 (Cytochrome P450 3A4): 26100 nM
- IC50 (Progesterone receptor): > 37000 nM
- inhibition [5]: 60%
- inhibition [6]: 65%
- IC50 (Estrogen receptor): > 37000 nM
- IC50 (Glucocorticoid receptor): > 37000 nM

SMILES: O=C1COc2ccc(S(=O)(=O)N(Cc3cccnc3)c3ccc(F)cc3)cc2N1
- IC50 [1]: > 10 nM
- Ki [2]: > 10 nM

SMILES: O=C1CCc2c(/C=C3\c4ccccc4COc4cc(F)ccc43)cccc21
- IC50 [1]: 148 nM
- Ki [2]: 13 nM

SMILES: O=C1COc2ccc(/C=C(\c3ccccc3)c3ccc(F)cc3F)cc2N1
- IC50 [1]: 1570 nM
- Ki [2]: 55 nM

SMILES: O=C1COc2ccc(CN3c4ccccc4COc4cc(F)ccc43)cc2N1
- IC50 (Cytochrome P450 2C9): 649 nM
- inhibition at 10 µM (hERG (KCNH2)): 29%
- inhibition [4]: 94%
- IC50 [1]: 176 nM
- Ki [2]: 31 nM
- IC50 (Cytochrome P450 2D6): 16400 nM
- IC50 (Cytochrome P450 3A4): 5540 nM
- inhibition [5]: 72%
- inhibition [6]: 47%

SMILES: CC1(C)OC(=S)Nc2ccc(S(=O)(=O)N3c4ccccc4COc4cc(F)ccc43)cc21
- half-life [3]: > 60 min
- IC50 (Cytochrome P450 2C9): 397 nM
- inhibition at 10 µM (hERG (KCNH2)): 48%
- inhibition [4]: 71%
- IC50 [1]: 21 nM
- Ki [2]: 6 nM
- IC50 (Cytochrome P450 2D6): 4100 nM
- IC50 (Cytochrome P450 3A4): 363 nM
- IC50 (Progesterone receptor): > 2000 nM
- inhibition [5]: 85%
- inhibition [6]: 33%
- IC50 (Estrogen receptor): > 2000 nM
- IC50 (Glucocorticoid receptor): 651 nM

SMILES: O=C1COc2ccc(COc3ccc(F)cc3F)cc2N1
- IC50 [1]: 1800 nM
- Ki [2]: 980 nM

SMILES: O=S1(=O)Cc2ccc(/C=C3\c4ccccc4COc4cc(F)ccc43)cc2N1
- IC50 [1]: 2550 nM
- Ki [2]: 694 nM

SMILES: O=C(O)CCN1CCC2(CC1)C(=O)Nc1cc(/C=C3\c4ccccc4COc4cc(F)ccc43)ccc12
- half-life [3]: > 60 min
- IC50 (Cytochrome P450 2C9): 12600 nM
- inhibition at 10 µM (hERG (KCNH2)): 32%
- inhibition [4]: 36%
- IC50 [1]: 29 nM
- Ki [2]: 16 nM
- IC50 (Cytochrome P450 2D6): 29900 nM
- IC50 (Cytochrome P450 3A4): 26000 nM
- IC50 (Progesterone receptor): > 12000 nM
- inhibition [5]: 75%
- inhibition [6]: 60%
- IC50 (Estrogen receptor): > 12000 nM
- IC50 (Glucocorticoid receptor): > 12000 nM

SMILES: O=C1COc2ccc(/C=C/c3ccc(F)cc3F)cc2N1
- IC50 [1]: 2300 nM
- Ki [2]: 162 nM

SMILES: O=C1COc2ccc(N(Cc3cccnc3)c3ccc(F)cc3)cc2N1
- IC50 [1]: 1510 nM
- Ki [2]: 1450 nM
